This is an account of results in patent publication EP2573089A1, “Novel artmisinin derivatives” (Spago Imaging AB, priority 2011, dated 2013).

The data set is classed as physicochemical. The note with it: for area of the main peak has decreased: after 72h at pH = 2.3, sodiumphosphate buffer, HPLC-ELSD. On the procedure: Example 11. The acid stability of four dihydroartemisinin (DHA) derivatives was investigated. […] Phenomex Luna; 50 x 4.6 mm, 3 μ C18. ACN/H2O; 60/40 at 1.0 ml/min DHA dissolved in mob. phase to give 0,21 mg/ml Compound of formula 1, n=4 (3PEG-DHA) dissolved in H2O to give 0.48 mg/ml in 0.1 M buffer. […] Artemisone dissolved in mob. phase to give 0.20 mg/ml in 0.1 M buffer, Artesunate dissolved in mob. phase to give 0.24 mg/ml in 0.1 M buffer. 20 μ[…]

Take `C[C@H]1[C@H](N2CCS(=O)(=O)CC2)O[C@@H]2O[C@@]3(C)CC[C@H]4[C@H](C)CC[C@@H]1[C@@]24OO3` [artemison, artemisone]: the degradation result is recorded as “No sign of degradation” and the “area of the main peak has decreased” value was “about 71%”.
Regarding `C[C@H]1[C@H](OC(=O)CCC(=O)O)O[C@@H]2O[C@@]3(C)CC[C@H]4[C@H](C)CC[C@@H]1[C@@]24OO3` [artesunate], the degradation entry is “No sign of degradation” and the “area of the main peak has decreased” value is recorded as “about 40%”. For the setting “72 h, 0.24 mg/ml, pH 2.3”, this molecule returned a degraded of 41%.
